Measured values reported in paper PMC6681021 (Pharmaceutics, 2019).
“And” between values parts separate entries of the source, which are not always exact repeats. Equal values may be shown once.

What was measured:
[1] = Pharmacokinetics after 1-min intravenous infusion of tofacitinib to rats; type: in vivo, Sprague-Dawley rats; conditions: for clearance / CL renal / MRT / half-life / Vd: Sprague-Dawley; for clearance / CL renal / MRT / half-life / Vd / AUC: rat; for Dose-normalized AUC: normalized to 10 mg/kg; for half-life: read-out: Terminal half-life; for Vd: read-out: Vss; for AUC: 1-min iv infusion, male Sprague-Dawley rats
Experimental: The pretreatment and surgical procedures for oral and intravenous administration were similar to those described previously. For oral administration, the rats were fasted overnight with free access to water. The rats were anesthetized with ketamine (200 mg/kg), and their carotid arteries were cannulated using polyethylene tubing (Clay Adams, Parsippany, NJ, USA) for blood sampling. For intravenous administration, the rats were anesthetized with ketamine (200 mg/kg), and their jugular veins and carotid arteries were cannulated for drug administration and blood sampling, respectively. Rats were allowed to recover for 4–5 h after surgical procedures. The rats were not restrained during the experimental period and had free access to water and food.
Blood samples (110–220 μL) were collected via the carotid artery at times 0 (prior to drug administration), 1 (at the end of drug infusion), 5, 15, 30, 45, 60, 90, 120, 180, 240, 360, 480, and 600 min. […] To prevent blood clotting, 0.3 mL of heparinized 0.9% NaCl-injectable solution (20 IU/mL) was immediately injected into the carotid artery after each blood sampling. Urine samples were collected over 24 h; in addition, each metabolic cage was rinsed with 20 mL of distilled water 24 h after drug administration, and the rinses were combined with their corresponding 24-h urine samples. […] At 24-h, each rat was exsanguinated, followed by cervical dislocation. The abdomen of each rat was opened and the entire gastrointestinal tract, including its contents and feces, was removed, transferred to a beaker containing 50 mL methanol, and cut into small pieces using scissors.
Two microliters of hydrocortisone (5 mg/mL) and 40 μL of 20% ammonia solution were added to 100 μL aliquots of biological samples and vortex-mixed for 30 s using a vortex mixer. Each solution was extracted with 1.5 mL of ethyl acetate by centrifugation at 12,000 rpm for 5 min. The organic layer was collected and dried (Dry Thermobath, Eyela, Tokyo, Japan) under a gentle stream of nitrogen gas at 40 °C. The samples were reconstituted in 130 μL of 20% acetonitrile, and 50 μL of resuspended samples were analyzed by HPLC [12].
The mobile phase consisted of a 69.5:30.5 (v/v) mixture of 10 mM ammonium acetate buffer (pH 5.0) and acetonitrile, respectively, with a flow rate of 1.0 mL/min. Column effluent was monitored by a UV detector at 287 nm.
(§1) Pharmacokinetic parameters, including AUC, apparent volume of distribution at steady state (Vss), mean residence time (MRT), and time-averaged total body (CL), renal (CLR), and nonrenal (CLNR) clearances, were calculated by noncompartmental analysis (WinNonlin, Pharsight Corporation, Mountain View, CA, USA) using standard methods. AUC values were calculated using the trapezoidal rule–extrapolation method. The peak plasma concentration (Cmax) and time to reach Cmax (Tmax) were obtained directly from the experimental data. The mean values of clearance, terminal half-life, and Vss were calculated using the harmonic mean method.

[2] = Hepatic first-pass effect: 30-min intravenous vs intraportal infusion in rats; type: in vivo, Sprague-Dawley rats; conditions: for AUC / CL renal / MRT / clearance / half-life / Vd: Sprague-Dawley, rat, plasma; for half-life: read-out: Terminal half-life; for Vd: read-out: Vss
Experimental: The carotid artery and jugular vein were handled as described previously. In addition, the vein from the cecum was cannulated and the cannula was pushed forward about 4 cm toward the liver through the portal vein to minimize the damage from blood flowing into the portal vein [13, 14]. […] Blood samples were collected from the carotid artery at times 0, 15, 30 (at the end of the infusion), 31, 35, 45, 60, 90, 150, 210, 270, 390, 510, and 630 min, with all sample collection and processing procedures identical to those described above.
as §1

[3] = Gastric and intestinal first-pass effect: intraportal infusion, intraduodenal and intragastric instillation in rats; type: in vivo, Sprague-Dawley rats
Experimental: Rats were fasted overnight with free access to water. Cannulae were inserted into the carotid artery and the cecal vein [13, 14]. […] All sample collection and processing procedures were identical to those described above.
as §1

[4] = Tissue distribution after intravenous administration in rats; type: in vivo; conditions: Sprague-Dawley, rat; every tissue except brain, mesentery and fat; 30 min and 2 h after iv 10 mg/kg; read-out: Tissue-to-plasma (T/P) ratio
Experimental: Rats were handled and processed as described previously [10]. […] After 30 min and 2 h (n = 4 each), as much blood as possible was collected from the carotid artery. Blood samples were immediately centrifuged, and plasma was collected. The rats were sacrificed by cervical dislocation, approximately 1 g of each brain, fat, heart, kidney, large intestine, liver, lung, mesentery, muscle, small intestine, spleen, and stomach was removed, rinsed with phosphate-buffered solution (pH 7.4), and blotted dry with paper towels to remove any remaining blood. Each tissue sample was added to four volumes of homogenizing buffer, homogenized using a tissue homogenizer (T25 Ultra-Turrax, IKA Labortechnik, Staufen, Germany) and centrifuged at 8000 × g for 10 min.

[5] = Human pharmacokinetics of tofacitinib (literature); type: in vivo; conditions: humans; 100–74%
[6] = 30-min intraportal infusion, 10 mg/kg (n = 7)
[7] = 30-min intravenous infusion, 10 mg/kg
[8] = 30-min intraportal infusion, 10 mg/kg (n = 6)
[9] = Sprague-Dawley, rat, plasma, 10 mg/kg, 30-min intraportal infusion, 10 mg/kg (n = 6)
[10] = Sprague-Dawley, rat, plasma, 10 mg/kg, intraduodenal instillation
[11] = Sprague-Dawley, rat, plasma, po, 10 mg/kg, intragastric instillation
[12] = Sprague-Dawley, rat, plasma, 30-min intraportal infusion, 10 mg/kg (n = 6)

C[C@@H]1CCN(C(=O)CC#N)C[C@@H]1N(C)c1ncnc2[nH]ccc12 [tofacitinib, 3-[(3R,4R)-4-methyl-3-[methyl-(7H-pyrrolo[2,3-day]pyrimidin-4-l)amino]piperidin-1-yl]-3-oxopropanenitril]
clearance ([1]; plasma, iv 50 mg/kg): 14.5 ± 2.33 mL/min/kg | Ae0–24 h ([1]; all intravenous doses): less than 11.0% | Slope of plot of AUC versus dose ([1]; intravenous, dose and AUC ratios based on 5 mg/kg): 2.74 | CLR slower at 50 mg/kg than at 5 mg/kg ([1]; iv): 69% | CLR slower at 50 mg/kg than at 10 mg/kg ([1]; iv): 71% | CLR slower at 50 mg/kg than at 20 mg/kg ([1]; iv): 71% | Ae0–24 h (excreted unchanged in 24-h urine) ([1]; iv 5 mg/kg): 7.62 ± 5.08 % of dose | CLNR ([1]; iv 5 mg/kg): 32.9 ± 7.72 mL/min/kg | Dose-normalized AUC ([1]; iv 5 mg/kg): 282 µg·min/mL and 282 ± 46.0 µg·min/mL | Ae0–24 h (excreted unchanged in 24-h urine) ([1]; iv 10 mg/kg): 9.40 ± 5.06 % of dose | CLNR ([1]; iv 10 mg/kg): 26.3 ± 2.16 mL/min/kg | Dose-normalized AUC ([1]; iv 10 mg/kg): 342 µg·min/mL and 342 ± 33.1 µg·min/mL | Ae0–24 h (excreted unchanged in 24-h urine) ([1]; iv 20 mg/kg): 11.0 ± 3.72 % of dose | CLNR ([1]; iv 20 mg/kg): 22.6 ± 3.90 mL/min/kg | Dose-normalized AUC ([1]; iv 20 mg/kg): 404 µg·min/mL and 404 ± 73.0 µg·min/mL | Ae0–24 h (excreted unchanged in 24-h urine) ([1]; iv 50 mg/kg): 5.55 ± 3.91 % of dose | CLNR ([1]; iv 50 mg/kg): 13.7 ± 2.12 mL/min/kg | Dose-normalized AUC ([1]; iv 50 mg/kg): 705 µg·min/mL and 705 ± 114 µg·min/mL | CL renal ([1]; male, plasma, iv 5 mg/kg): 2.69 ± 1.7 mL/min/kg | MRT ([1]; male, plasma, iv 5 mg/kg): 35.2 min | clearance ([1]; male, plasma, iv 5 mg/kg): 36.3 ± 6.02 mL/min/kg | half-life ([1]; male, plasma, iv 5 mg/kg): 38.2 ± 11.7 min | Vd ([1]; male, plasma, iv 5 mg/kg): 1.26 ± 0.46 L/kg | CL renal ([1]; male, plasma, iv 10 mg/kg): 2.8 ± 1.69 mL/min/kg | MRT ([1]; male, plasma, iv 10 mg/kg): 41.1 min | clearance ([1]; male, plasma, iv 10 mg/kg): 29.5 ± 2.99 mL/min/kg | half-life ([1]; male, plasma, iv 10 mg/kg): 41.6 ± 7.86 min | Vd ([1]; male, plasma, iv 10 mg/kg): 1.21 ± 0.579 L/kg | CL renal ([1]; male, plasma, iv 20 mg/kg): 2.8 ± 1.17 mL/min/kg | MRT ([1]; male, plasma, iv 20 mg/kg): 35.5 min | clearance ([1]; male, plasma, iv 20 mg/kg): 25.4 ± 4.26 mL/min/kg | half-life ([1]; male, plasma, iv 20 mg/kg): 48.1 ± 5.56 min | Vd ([1]; male, plasma, iv 20 mg/kg): 0.9 ± 0.218 L/kg | CL renal ([1]; male, plasma, iv 50 mg/kg): 0.824 ± 0.651 mL/min/kg | MRT ([1]; male, plasma, iv 50 mg/kg): 105 min | half-life ([1]; male, plasma, iv 50 mg/kg): 97.8 ± 19.2 min | Vd ([1]; male, plasma, iv 50 mg/kg): 1.49 ± 0.134 L/kg | clearance ([1]; male, range over intravenous doses, based on plasma data): 14.5 to 36.3 mL/min/kg | AUC ([1]; plasma, 5 mg/kg): 2350 ng·h/mL | AUC ([1]; plasma, 10 mg/kg): 5700 ng·h/mL | AUC ([1]; plasma, 20 mg/kg): 13500 ng·h/mL | AUC ([1]; plasma, 50 mg/kg): 58800 ng·h/mL | AUC after intraportal administration as % of that after intravenous administration ([2]; 10 mg/kg): 58.0% | CL faster after intraportal than intravenous administration ([2]; 10 mg/kg): 67% | CLNR faster after intraportal than intravenous administration ([2]; 10 mg/kg): 60% | Vss higher after intraportal than intravenous administration ([2]; 10 mg/kg): 50% | Ae0–24 h [2, 6]: 10.7 ± 9.42 % of dose | CLNR [2, 6]: 38.5 ± 10.4 mL/min/kg | Ae0–24 h [2, 7]: 12.5 ± 5.20 % of dose | CLNR [2, 7]: 24.0 ± 6.46 mL/min/kg | AUC [2, 6]: 4030 ng·h/mL | CL renal [2, 6]: 5 ± 4.69 mL/min/kg | MRT [2, 6]: 59.6 min | clearance [2, 6]: 43.8 ± 11 mL/min/kg | half-life [2, 6]: 42.4 ± 10.4 min | Vd [2, 6]: 2.55 ± 0.72 L/kg | AUC [2, 7]: 6950 ng·h/mL | CL renal [2, 7]: 2.34 ± 2.9 mL/min/kg | MRT [2, 7]: 67.5 min | clearance [2, 7]: 26.3 ± 8.85 mL/min/kg | half-life [2, 7]: 46.2 ± 12.5 min | Vd [2, 7]: 1.7 ± 0.737 L/kg | AUC after intraduodenal instillation as % of that after intraportal administration ([3]; 10 mg/kg): 50.7% | Ae0–24 h [3, 8]: 5.82 ± 2.32 % of dose | CLNR [3, 8]: 38.3 ± 6.16 mL/min/kg | Oral dose absorbed into the systemic circulation ([3]; 50.7–21.3%, 10 mg/kg): 29.4% | CL renal [3, 9]: 2.44 ± 1.23 mL/min/kg | Cmax [3, 9]: 5180 ± 586 ng/mL | Tmax [3, 9]: 27.5 min | AUC ([3]; Sprague-Dawley, rat, plasma, 10 mg/kg, 30-min intraportal infusion, 10 mg/kg (n = 6), fasted): 4530 ng·h/mL | AUC [3, 10]: 2300 ng·h/mL | CL renal [3, 10]: 5.72 ± 2.62 mL/min/kg | Cmax [3, 10]: 1550 ± 1930 ng/mL | Tmax [3, 10]: 38.8 min | AUC [3, 11]: 2230 ng·h/mL | CL renal [3, 11]: 7.08 ± 2.91 mL/min/kg | Cmax [3, 11]: 716 ± 255 ng/mL | Tmax [3, 11]: 63.8 min | MRT [3, 12]: 53 min | clearance [3, 12]: 38.4 ± 8.47 mL/min/kg | half-life ([3]; Sprague-Dawley, rat, plasma, 30-min intraportal infusion, 10 mg/kg (n = 6), read-out: Terminal half-life): 44.8 ± 14.2 min | Vd ([3]; Sprague-Dawley, rat, plasma, 30-min intraportal infusion, 10 mg/kg (n = 6), read-out: Vss): 1.9 ± 0.369 L/kg | Ae0–24 h ([3]; intraduodenal instillation, 10 mg/kg): 8.30 ± 5.10 % of dose | Ae0–24 h ([3]; intragastric instillation, 10 mg/kg): 8.90 ± 3.00 % of dose | Kp [4]: > 1 | Oral dose presumed first-pass metabolized in the intestine and the liver [5]: 26%
